One data set addresses T1, rat HNF4α LBD (Rattus norvegicus, UniProt P22449).
T1 sequence (P22449 147-377 limits assumed): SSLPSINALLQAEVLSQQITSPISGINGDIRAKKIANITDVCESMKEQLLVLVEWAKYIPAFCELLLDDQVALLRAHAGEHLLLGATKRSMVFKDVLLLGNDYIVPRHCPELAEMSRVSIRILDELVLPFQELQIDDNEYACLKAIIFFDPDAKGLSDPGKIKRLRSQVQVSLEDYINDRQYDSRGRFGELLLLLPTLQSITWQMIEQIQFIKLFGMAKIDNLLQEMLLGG
In words: Direct binding by quenching of intrinsic fluorescence of HNF4α LBD. To be noted: quenching of Tyr/Trp intrinsic fluorescence. As to the method: FIGS. 12A and 12B show BIM5078 binding to HNF4α ligand-binding domain (LBD). A. Binding of BIM5078 was analyzed by quenching of intrinsic fluorescence of rat HNF4α LBD aromatic amino acids Tyr/Trp. […] B. BIM5078 was docked to rat HNF4α LBD (PDB Code: 1m7w) using the program BioMedCache. […] Moreover, the chloro group of BIM5078 forms a hydrophobic interaction with the side chain of the binding-pocket residue Val 178.

The subject of data set [1] is endogenous insulin message. In words: Endogenous insulin message in T6PNE cells. The data set is classed as cell-based, human. An excerpt: Primary β-cells are in short supply and have a strong tendency to undergo apoptosis when manipulated in culture. Therefore, a β-cell model was used for the studies regarding β-cell growth and differentiation. T6PNE cells were derived from human fetal islets and were engineered to express the transcription factors PDX-1, NeuroD1, and E47, which are all present in the human β-cell. […] Titrations were used to measure the mRNA or protein amount of insulin expression. In order to adapt the cell line for HTS assays, a lentiviral vector expressing the insulin promoter-e green fluorescent protein (GFP) cassette ins-GFP transgene was used to infect T6PNE. As a result, compounds that targeted the insulin promoter could be visibly detected by changes in the green channel (observing GFP). […] Therefore, expression in the transfunctioned cell can be used as a baseline so both up and down regulators of the insulin promoter can be monitored in the screening assays. […] Insulin expression was monitored and visualized by the ins-GFP transgene. Hits were determined and dependent on the ability to differentiate between a baseline condition and the corresponding positive or negative control. […]
A few of these were selected for further evaluation. […] The initial confirmatory assay of BIM5078 was performed by measuring the readout of the insulin-GFP transgene. […]

In a further data set the test system is human insulin promoter. The data set is described as follows: Insulin promoter-GFP (ins-GFP transgene) assay in T6PNE cells. Type of data set: cell-based. The note with it: for repression of insulin promoter activity (qualitative): T6PNE ins-eGFP. An excerpt: Primary β-cells are in short supply and have a strong tendency to undergo apoptosis when manipulated in culture. Therefore, a β-cell model was used for the studies regarding β-cell growth and differentiation. T6PNE cells were derived from human fetal islets and were engineered to express the transcription factors PDX-1, NeuroD1, and E47, which are all present in the human β-cell. […] Titrations were used to measure the mRNA or protein amount of insulin expression. In order to adapt the cell line for HTS assays, a lentiviral vector expressing the insulin promoter-e green fluorescent protein (GFP) cassette ins-GFP transgene was used to infect T6PNE. As a result, compounds that targeted the insulin promoter could be visibly detected by changes in the green channel (observing GFP). […] This increase correlates with that of the endogenous insulin message. Therefore, expression in the transfunctioned cell can be used as a baseline so both up and down regulators of the insulin promoter can be monitored in the screening assays. […] of the insulin promoter are useful for analyzing the governing pathways in diabetes. However, both up and down modulators were screened for. […] Insulin expression was monitored and visualized by the ins-GFP transgene. Hits were determined and dependent on the ability to differentiate between a baseline condition and the corresponding positive or negative control. […]
The HTS was performed in a 384-well format where primed T6PNE cells express the ins-GFP transgene and the test compound was added 24 hours later. […] The Images were then analyzed using algorithms (Jeff Price at the Screening Center at the Burnham Institute). Images of each well were captured in the blue channel (to evaluate cell number), the green channel (a readout for insulin gene expression) and the red channel (to eliminate autofluorescent compounds). […] Furthermore, hits are determined by applying threshold intensity gates on the green channel and counting the number of cells above or below that gate in a given well. […]

The subject of another data set is HBV. The data set is described as follows: HBsAg expression in Huh7 cells transfected with wild type HBV construct (pWTD). The data set is classed as cell-based, Hepatitis B virus. The note with it: GP33 and GP36 doublet bands. The text has this: BIM5078 is an HNF4α antagonist and can be useful in treatment of diseases involving HNF4α modulation. There are a number of HNF4α binding sites in the HBV genome, including the enhancer region, the core promoter and the polymerase. BIM5078 can downregulate the core and polymerase, and it has been discovered that it can effectively suppress or eliminate HBV proliferation. Also, the HNF4α binding sites are well-conserved and no mutations of these sites have yet been discovered in the various HBV strains. Thus, targeting HNF4α can circumvent the resistance seen with traditional therapies. […] The ability of the HNF4α antagonist BIM5078 to reduce viral production in Huh7 cells transfected with the wild-type HBV construct (pWTD) was tested. […] The large decrease in the two glycosylation forms of the surface antigen was visualized as doublet bands (FIG. 11).

For a further data set, the system named is HNF1α. In words: HNF1α transcription. Type of data set: cell-based. How it is done: HNF1α is a downstream target of HNF4α and has a known binding site on the human insulin gene promoter. […] It is unclear whether HNF4α is modulating the insulin promoter directly or indirectly through a downstream target. Overexpression of HNF1α or HNF4α would overcome the repressive effects of BIM5078. The repressive effect of BIM5078 was lost when it was added to T6PNE cells with high levels of induced E47 (FIG. 10). High E47 levels are thought to resemble the normal state of a (3-cell while low levels of E47 to simulate the stress condition.

For another data set, the target named is T2, HNF4α (Homo sapiens, UniProt P41235).
T2 construct: endogenous in cells
T2 sequence (P41235 1-474): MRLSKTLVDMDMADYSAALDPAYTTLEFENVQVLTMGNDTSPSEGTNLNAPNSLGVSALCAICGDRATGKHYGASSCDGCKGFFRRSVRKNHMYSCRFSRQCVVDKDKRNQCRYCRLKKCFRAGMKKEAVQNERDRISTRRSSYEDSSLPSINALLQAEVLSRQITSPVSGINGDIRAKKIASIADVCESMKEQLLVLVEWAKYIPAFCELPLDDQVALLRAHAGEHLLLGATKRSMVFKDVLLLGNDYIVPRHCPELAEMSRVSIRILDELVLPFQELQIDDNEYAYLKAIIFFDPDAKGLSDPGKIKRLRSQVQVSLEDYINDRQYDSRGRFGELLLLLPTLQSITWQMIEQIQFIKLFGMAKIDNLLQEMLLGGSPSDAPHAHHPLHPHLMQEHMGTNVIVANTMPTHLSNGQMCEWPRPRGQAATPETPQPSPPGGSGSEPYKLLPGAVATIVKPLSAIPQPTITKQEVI
In words: HNF4α subcellular localization. Type of data set: cell-based. An excerpt: Many ligands for nuclear receptor subfamilies induce the translocation of their receptors between the cytoplasm and the nucleus.

The target of the next data set is T3, human PPARγ (Homo sapiens, UniProt P37231).
T3 construct: expressed in transfected cells; host or cells: HeLa cells
T3 sequence (P37231 1-505): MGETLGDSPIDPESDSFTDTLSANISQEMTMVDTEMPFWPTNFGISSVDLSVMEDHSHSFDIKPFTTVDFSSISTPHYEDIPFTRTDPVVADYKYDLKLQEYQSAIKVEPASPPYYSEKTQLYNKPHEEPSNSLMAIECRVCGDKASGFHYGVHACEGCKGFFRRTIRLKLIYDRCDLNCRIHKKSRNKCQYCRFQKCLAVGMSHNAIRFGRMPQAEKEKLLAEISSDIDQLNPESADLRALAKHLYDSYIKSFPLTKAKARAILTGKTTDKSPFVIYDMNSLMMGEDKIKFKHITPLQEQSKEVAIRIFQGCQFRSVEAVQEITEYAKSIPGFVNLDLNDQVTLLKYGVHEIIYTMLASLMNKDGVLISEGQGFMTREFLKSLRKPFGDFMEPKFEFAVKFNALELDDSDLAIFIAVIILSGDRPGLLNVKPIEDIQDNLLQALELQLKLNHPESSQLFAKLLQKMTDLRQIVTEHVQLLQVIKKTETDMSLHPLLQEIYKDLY
The data set is described as follows: PPAR response element (PPRE)-luciferase reporter assay in HeLa cells. The data set is classed as cell-based. To be noted: enhanced by co-transfection with PPARγ expression vector. As to the method:
The core structure of BIM5078, benzimidazole, is related to known PPARγ compounds that functions as agonists or antagonists. BIM5078 was used in a PPAR response element (PPRE)-luciferase reporter assay. HeLa cells were co-transfected with a PPAR response element (PPRE) reporter plasmid and a human PPARγ expression vector. […] Known PPARγ agonists were used as positive controls. The same PPARγ agonist compounds were tested on T6PNE ins-eGFP for their ability to repress the insulin promoter. Known PPARγ agonists are unable to suppress insulin gene transcription. Similarly, other PPAR agonists of the alpha and delta class were also negative in the assay. However, because HNF4α also binds to PPREs, BIM5078's ability to bind HNF4α was further investigated.
In general terms: In a reporter assay the amount or activity of a reporter protein is the signal.

The conditions of data set [2]: hoFH patients, 10 mg/day added to maximal-dose statin regimen; cited from earlier work.

“Also recorded” adds a separate entry of the source.

The melting point is the temperature, or range, at which the solid turns liquid. `O=[N+]([O-])c1cccc(S(=O)(=O)n2cnc3ccccc32)c1` [BI-6001, 1-(3-Nitrophenylsulfonyl)-1H-benzo[d]imidazole] showed a melting point of 154 to 156 °C.

As to `Cc1nc2ccccc2n1S(=O)(=O)c1cccc([N+](=O)[O-])c1` [BI-6002, 2-Methyl-1-(3-nitrophenylsulfonyl)-1H-benzo[d]imidazole], the melting point was 148 to 150 °C. `Cc1nc2ccccc2n1C(=O)c1cc([N+](=O)[O-])ccc1Cl` [BI-6009, 1-(2-Chloro-5-nitrobenzoyl)-2-methyl-1H-benzo[d]imidazole] returned a melting point of 157 to 159 °C. In turn, `O=C(c1cc([N+](=O)[O-])ccc1Cl)n1cnc2ccccc21` [BI-6010, 1-(2-Chloro-5-nitrobenzoyl)-1H-benzo[d]imidazole] displayed a melting point of 149 to 151 °C. Turning to `Cc1nc2ccccc2n1C(=O)c1cccc([N+](=O)[O-])c1` [BI-6011, 2-Methyl-1-(3-nitrobenzoyl)-1H-benzo[d]imidazole], the melting point was in the range of 120 to 122 °C.

`O=C(c1cccc([N+](=O)[O-])c1)n1cnc2ccccc21` [BI-6012, 1-(3-Nitrobenzoyl)-1H-benzo[d]imidazole] gave a melting point of 133 to 135 °C. For `CCOC(=O)c1ccc(Cl)c(S(=O)(=O)n2c(C)nc3ccccc32)c1` [BI-6013, 1-(5-Carbethoxy-2-chlorophenylsulfonyl)-2-methyl-1H-benzo[d]imidazole], the melting point was in the range of 110 to 112 °C. Take `Cc1ccc([N+](=O)[O-])cc1S(=O)(=O)n1cnc2ccccc21` [BI-6016, 1-(2-Methyl-5-nitrobenzenesulfonyl)benzimidazole]: the melting point was 159 to 161 °C. Broadly, the Kd is the equilibrium constant for the complex coming apart. High values mean a looser complex, low ones a tighter complex. Take `Cc1nc2ccccc2n1S(=O)(=O)c1cc([N+](=O)[O-])ccc1Cl` [BIM5078, 1-[(2′-chloro-5-nitrophenyl)sulfonyl]-2-methyl-1H-benzimidazole]: binding on rat HNF4α LBD was put at a Kd of 11.9 nM. In data set [1] (5 μM, insulin message induced by 1 μM 4-hydroxytamoxifen), the “repression of insulin message” value amounted to 6 fold. In addition, the “repressive effect on insulin expression at high E47” value in data set [1] (T6PNE cells with high levels of induced E47 (high 4OHT)) is listed as “lost”. Also, in the data set with human insulin promoter (5 μM, T6PNE cells), the “suppression of GFP expression (insulin-GFP transgene)” value is on record as “up to 30 fold”. In the data set with human insulin promoter, the “repression of insulin promoter activity (qualitative)” value is recorded as “downregulator of human insulin promoter activity”. Further, in the data set with HBV, the “HBV surface antigen (HBsAg) level” value is “decreased the HBsAg protein expression; also recorded: decreased their levels of surface antigen”. The “effect on HNF1α transcription” value in the data set on HNF1α was “decrease the HNF1α transcription”. Also, the “localization of HNF4α upon compound addition” value on HNF4α was “localized entirely in the nucleus”. The “activation of PPRE reporter” value on human PPARγ is recorded as “activated the PPRE”.

On to `O=C1[C@H](CC[C@H](O)c2ccc(F)cc2)[C@@H](c2ccc(O)cc2)N1c1ccc(F)cc1` [ezetimibe], for which, in [2], the “total reduction of LDL-C levels” value was 27%. For `CCCCCCCCCCCCCCCC(=O)O` [palmitic acid, reference compound], the “repression of insulin promoter activity (qualitative)” value in the data set with human insulin promoter is reported as “suppresses the insulin promoter activity in a dose-dependent fashion”.

Values taken from patent US20100317706A1, “HNF4alpha MODULATORS AND METHODS OF USE” (Bumham Institute for Medical Research, priority 2009, published 2010).
